Laboratory results reported in ChEMBL document CHEMBL1159241, “Dihydrolicoisoflavone, a new isoflavanone from Swartzia polyphylla” (J Nat Prod, 1995).

Experiment: Inhibition of protein kinase C

- IC50: < 50 mg/L
SMILES: COc1ccc(-c2coc3cc(O)cc(O)c3c2=O)cc1 [BIOCHANIN]
